Where two headings read alike, the source gives them in different places.
Key:
HMG-CoA reductase = molecular target: T1, HMG-CoA reductase (Rattus norvegicus, UniProt P51639); test: Test A: In Vitro Microsomal Assay of HMG-CoA Reductase Inhibition; assay type: biochemical; settings: rat liver microsomes, read-out: IC50 (50% inhibition of HMG-CoA reductase activity)
T1 construct: rat liver microsomal suspensions, freshly prepared from male Sprague-Dawley rats; from tissue; host or cells: liver microsomes of male Sprague-Dawley rats
T1 sequence (P51639 1-887): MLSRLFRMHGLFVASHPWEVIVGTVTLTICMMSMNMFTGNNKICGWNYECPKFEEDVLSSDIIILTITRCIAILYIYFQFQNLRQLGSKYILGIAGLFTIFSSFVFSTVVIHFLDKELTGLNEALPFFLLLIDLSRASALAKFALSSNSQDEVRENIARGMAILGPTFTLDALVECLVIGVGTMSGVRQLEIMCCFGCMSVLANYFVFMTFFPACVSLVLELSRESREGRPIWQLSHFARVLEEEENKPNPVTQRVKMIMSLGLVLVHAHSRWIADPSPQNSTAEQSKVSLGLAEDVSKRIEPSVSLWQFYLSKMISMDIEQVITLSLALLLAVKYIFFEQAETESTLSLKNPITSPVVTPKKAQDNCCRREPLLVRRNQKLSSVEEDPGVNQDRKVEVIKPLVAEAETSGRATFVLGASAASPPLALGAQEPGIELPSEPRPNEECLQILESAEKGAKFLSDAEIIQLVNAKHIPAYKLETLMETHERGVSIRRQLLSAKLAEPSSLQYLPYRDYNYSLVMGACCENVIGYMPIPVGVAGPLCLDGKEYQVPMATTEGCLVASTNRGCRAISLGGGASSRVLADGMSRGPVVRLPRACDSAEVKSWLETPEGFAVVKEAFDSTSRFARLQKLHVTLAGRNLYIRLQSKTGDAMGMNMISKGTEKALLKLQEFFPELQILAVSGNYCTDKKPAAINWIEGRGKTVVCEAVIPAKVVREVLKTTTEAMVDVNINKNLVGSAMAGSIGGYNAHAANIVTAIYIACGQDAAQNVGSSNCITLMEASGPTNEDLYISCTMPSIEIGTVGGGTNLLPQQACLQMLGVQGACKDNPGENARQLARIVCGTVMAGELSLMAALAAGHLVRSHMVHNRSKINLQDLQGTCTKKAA
Description: Test A. In Vitro Microsomal Assay of HMG-CoA Reductase Inhibition:
200 μl. aliquots (1.08-1.50 mg./ml.) of rat liver microsomal suspensions, freshly prepared from male Sprague-Dawley rats (150-225 g. body weight), in Buffer A with 10 mmol. dithiothreitol are incubated with 10 μl. of a solution of the test substance dissolved in dimethylacetamide and assayed for HMG-CoA reductase activity as described by Ackerman et al., J. Lipid Res. 18, 408-413 (1977), the concentration of the test substance in the assay system being 0.01-2,000 μmolar. In the assay the microsomes are the source of the HMG-CoA reductase enzyme which catalyzes the reduction of HMG-CoA to mevalonate. The assay employs a chloroform extraction to separate the product, [^14 C]-mevalonolactone, formed by the HMG-CoA reductase reaction from the substrate, [^14 C]HMG-CoA. [^3 H]mevalonolactone is added as an internal reference. Inhibition of HMG-CoA reductase is calculated from the decrease in specific activity [^14 C/^3 H]mevalonate) of test groups compared to controls.
IC50 is the concentration of the test substance in the assay system observed or calculated to produce a 50% inhibition of HMG-CoA reductase activity (Test A) or sterol biosynthesis (Test B).

[1] = test system: 3β-hydroxysterol synthesis; test: Test C: In Vivo Cholesterol Biosynthesis Inhibition Test; parameters: species or system rat (male Wistar Royal Hart); settings: for ED50: Rattus norvegicus, read-out: ED50 (50% inhibition of 3β-hydroxysterol synthesis)
Description: Test C. In Vivo Cholesterol Biosynthesis Inhibition Test:
In vivo studies utilize male Wistar Royal Hart rats weighing 150±20 g. which have been kept for 7-10 days on an altered light cycle (6:30 A.M.-6.30 P.M. dark) housed two per cage and fed powdered Purina Rat Chow and water ad libitum. Three hours before the diurnal maximum of cholesterol synthesis at mid-dark, the rats are administered the test substances dissolved or as a suspension in 0.5% carboxymethylcellulose in a volume of 1 ml./100 g. body weight. Controls receive vehicle alone. One hour after receiving the test substance, the rats are injected intraperitoneally with about 25 μCi/100 g. body weight of sodium [1-^14 C]acetate 1-3 mCi/mmol. Two hours after mid-dark, blood samples are obtained under sodium hexobarbitol anesthesia, and the serum separated by centrifugation. (The dosage of the test substance is 0.01-200 mg./kg. body weight.)
The [^14 C]digitonides are then counted by liquid scintillation spectrometry. After correcting for efficiencies, the results are calculated in nCi (nanocuries) of sterol formed per 100 ml. of serum. Inhibition of sterol synthesis is calculated from the reduction in the nCi of sterols formed from test groups compared to controls.
The ED50 is the dose of the test substances observed or calculated to produce a 50% inhibition of 3β-hydroxysterol synthesis.

[2] = test system: sterol biosynthesis in Fu5AH rat hepatoma cell line; test: Test B: In Vitro Cell Culture Cholesterol Biosynthesis Screen; assay type: cell-based; settings: Fu5AH rat hepatoma cells, [14C]acetate, 3 hours, read-out: IC50 (50% inhibition of sterol biosynthesis)
Description: Test B. In Vitro Cell Culture Cholesterol Biosynthesis Screen:
The cell culture is prepared as follows: Stock monolayer cultures of the Fu5AH rat hepatoma cell line (originally obtained from G. Rothblat; see Rothblat, Lipids 9, 526-535 (1974) are routinely maintained in Eagle's Minimum Essential Medium (EMEM) supplemented with 10% fetal bovine serum (FBS) in 75 cm^2. tissue culture flasks. For these studies, when the cultures reach confluence, they are removed by mild enzymatic treatment with 0.25% trypsin in Hank's balanced salt solution (without calcium and magnesium). After centrifugation of the cell suspension and aspiration of the enzymatic solution, the cell pellet is resuspended in an appropriate volume of media for seeding into 60 mm. tissue culture dishes. The cultures are incubated at 37° C. in an atmosphere of high humidity and 5% carbon dioxide. When the cultures are confluent (approximately 5 days), they are ready for use. The culture media is aspirated from the dishes and replaced with 3 ml. of EMEM supplemented with 5 mg./ml. of delipidized serum protein (DLSP) prepared by the method of Rothblat et al., In Vitro 12, 554-447 (1976). […] Enhanced 3-hydroxy-3-methylglutaryl Coenzyme A reductase (HMG-CoA reductase) activity is measurable in the cells in response to the lack of exogenous sterol. Following approximately 24 hours incubation at 37° C. in the DLSP supplemented media, the assay is initiated by the addition of 3 μCi of [^14 C]acetate and the test substances solubilized in dimethylsulfoxide (DMSO) or distilled water. Solvent controls and compactin-treated controls are always prepared. Triplicate 60 mm. tissue culture dishes are run for each group. After 3 hours incubation at 37° C., the cultures are examined microscopically using an inverted phase contrast microscope. Notations are made of any morphological changes which may have occurred in the cultures. The media is aspirated and the cell layer is gently washed twice with 0.9% sodium chloride solution (saline). The cell layer is then harvested in 3 ml. of 0.9% saline by gentle scraping with a rubber policeman and transferred to a clean glass tube with Teflon lined cap. The dishes are rinsed with 3 ml. of 0.9% saline and rescraped, and the cells are combined with the first harvest. The tubes are centrifuged at 1500 r.p.m. for 10 minutes in an IEC PR-J centrifuge, and the supernatant is aspirated.
The cells are then extracted as follows: One ml. of 100% ethanol is added to the cell pellet followed by sonication for 10 seconds with a "LO" setting of 50 on a Bronwell Biosonik IV. One hundred μl. are taken for protein determination. One ml. of 15% potassium hydroxide (KOH) is added, and the samples are thoroughly vortexed. Saponification is accomplished by heating the ethanol-KOH treated samples at 60° C. for 60 minutes in a water bath. Following dilution of the samples with 2 ml. of distilled water, they are extracted three times with 7 ml. of petroleum ether. The petroleum ether extracts are then washed three times with 2 ml. of distilled water and finally taken to dryness under a stream of nitrogen.
The obtained samples are then analyzed by thin layer chromatography (TLC) as follows: Residues from the petroleum ether extraction are taken up in a small volume of hexane and spotted on silica gel 60 TLC plates (E. Merck). Development of the plates is carried out in a three phase solvent system consisting of 150 parts by volume hexane: 50 parts by volume diethyl ether: 5 parts by volume glacial acetic acid. Visualization is accomplished in an iodine vapor chamber. The plates are divided into five sections such that each section contains the molecules having the following approximate Rf value: section 1-0-0.4, section 12-0.4-0.55, section 3-0.55-0.7, section 4-0.7-0.9 and section 5-0.9-1.0. Section 2 contains the non-saponifiable sterols. The five sections of the TLC plates are scraped into scintillation vials. […]

[3] = Test C, male Wistar Royal Hart rats

Row | Structure (SMILES) | IC50 (HMG-CoA reductase) [µM] | IC50 [2] [µM] | ED50 [1] [mg/kg] | ED50 [1, 3] [mg/kg] | change in 3β-hydroxysterol synthesis ([1]; Test C, male Wistar Royal Hart rats, at 5.9 mg./kg.) [%]
1 | CC[C@H](C)C(=O)O[C@H]1C[C@@H](C)C=C2C=C[C@H](C)[C@H](CC[C@@H]3C[C@@H](O)CC(=O)O3)[C@H]21 [Mevinolin, reference compound] | – | – | 0.41 | – | –
2 | O=C1CC(O)CC(/C=C/[C@@H]2CC=CC[C@H]2c2ccc(Cl)cc2)O1 (stereo partly drawn) [Example 73] | 450 | – | – | – | –
3 | C[C@@H]1CC[C@H](C)[C@H](c2ccc(F)cc2)[C@H]1CCC(O)CC(O)CC(=O)O (stereo partly drawn) [Example 85] | 7.2 | – | – | – | –
4 | CC[C@H](C)C(=O)O[C@H]1CCC=C2C=C[C@H](C)[C@H](CC[C@@H]3C[C@@H](O)CC(=O)O3)[C@H]21 [Compactin, reference compound] | 0.94 | 0.08 | – | 3.5 | –
5 | C[C@@H]1C=C[C@H](C)[C@H](c2ccc(F)cc2)[C@H]1/C=C/C(O)CC(O)CC(=O)O (stereo partly drawn) [Example 5, Sodium (E)-3,5-dihydroxy-7-[2'α,5'α-dimethyl-6'α-(4"-fluorophenyl)cyclohex-3'-en-1'βS-yl]hept-6-enoate] | 1.19 | 0.6 | – | 2.07 | –
6 | C[C@@H]1C=C[C@H](C)[C@@H](/C=C/C2CC(O)CC(=O)O2)[C@@H]1c1ccc(F)cc1 (stereo partly drawn) [Example 74] | 116 | 5.8 | – | 20 | –
7 | C[C@@H]1C=C[C@H](C)[C@H](c2ccc(F)cc2)[C@H]1/C=C/C1CC(O)CC(=O)O1 (stereo partly drawn) [Example 3, (E)-6-[2'-(2"α,5"α-Dimethyl-6"α-(4'"-fluorophenyl)cyclohex-3"-en-1"βS-yl)ethenyl]-4-hydroxy-3,4,5,6-tetrahydro-2H-pyran-2-one] | 8.13 | 1.2 | – | 2.4 | –

Further compounds by falling IC50 (HMG-CoA reductase), results first:

Row | IC50 (HMG-CoA reductase) [µM] | IC50 [2] [µM] | Structure (SMILES) | ED50 [1] [mg/kg] | ED50 [1, 3] [mg/kg] | change in 3β-hydroxysterol synthesis ([1]; Test C, male Wistar Royal Hart rats, at 5.9 mg./kg.) [%]
8 | 1370 | – | O=C1CC(O)CC(/C=C/[C@H]2CC=CC[C@@H]2c2ccccc2)O1 (stereo partly drawn) [Example 67B] | – | – | –
9 | 141 | 5.4 | CCOC(=O)CC(O)CC(O)/C=C/[C@@H]1[C@@H](c2ccc(F)cc2)[C@H](C)CC[C@H]1C(C)C (stereo partly drawn) [Example 86] | – | – | –
10 | 29 | 4.8 | C[C@@H]1C=C[C@H](C)[C@H](c2ccccc2)[C@H]1/C=C/C1CC(O)CC(=O)O1 (stereo partly drawn) [Example 79] | – | – | -62
11 | 5.57 | – | CCOC(=O)CC(O)CC(O)/C=C/[C@@H]1[C@@H](c2cccc3ccccc23)[C@@H](C)C=C[C@H]1C (stereo partly drawn) [Example 6, Ethyl (E)-3,5-dihydroxy-7-(2'α,5'α-dimethyl-6'α-naphth-1"-ylcyclohex-3'-en-1'βS-yl)hept-6-enoate] | – | – | –
12 | 3.23 | – | C[C@@H]1C=C[C@H](C)[C@H](c2ccc(F)cc2)[C@H]1/C=C/[C@@H]1C[C@@H](O)CC(=O)O1 [Example 3A, (E)-Trans-6S-[2'-(2"α,5"α-Dimethyl-6"α-(4'"-fluorophenyl)cyclohex-3"-en-1"βS-yl)ethenyl]-4R-hydroxy-3,4,5,6-tetrahydro-2H-pyran-2-one] | – | – | –
13 | 0.54 | – | C[C@@H]1C=C[C@H](C)[C@H](c2ccc(F)cc2)[C@H]1/C=C/[C@@H](O)C[C@@H](O)CC(=O)O [Example 5A, Sodium (E)-3R,5S-dihydroxy-7-[2'α,5'α-dimethyl-6'α-(4"-fluorophenyl)cyclohex-3'-en-1'βS-yl]hept-6-enoate] | – | – | –

Reference: patent US4876280A, “Arylcyclohexane and arylcyclohexene analogs of mevalonolactone derivatives and their use” (Sandoz Pharm. Corp., priority 1988, dated 1989)
